This note sets out measurements from the Biogen ADME set (Fang et al. 2023).

Structures are written as SMILES. Converted amounts (≈) assume the structure as drawn.

For this series the following is noted: for aqueous solubility: pH 6.8.

In turn, `Cc1cc(C)nc(SCC(=O)N2c3ccccc3C(C)(c3ccc(Cl)cc3)CC2(C)C)n1` (stereo not drawn) returned an intrinsic clearance, human liver microsomes of 1040 mL/min/kg and an intrinsic clearance, rat liver microsomes of 2110 mL/min/kg.
`CCNc1cc2c(nn1)CCN(C(=O)Cn1ccc3ccccc31)C2`: the intrinsic clearance, human liver microsomes is at most 4.74 mL/min/kg and the intrinsic clearance, rat liver microsomes was 93.1 mL/min/kg.
`Clc1ccc(Cc2nc(-c3ccccc3)n[nH]2)cn1`: the MDR1-MDCK efflux ratio worked out at 1.52; the intrinsic clearance, human liver microsomes is 40.9 mL/min/kg; the intrinsic clearance, rat liver microsomes amounted to 66.8 mL/min/kg; the aqueous solubility worked out at 20.1 µg/mL (≈ 74.2 µM).
In the case of `COCCN(C)C(=O)c1ccc(-c2cccc(-c3noc(C)n3)c2)cc1`, the MDR1-MDCK efflux ratio stood at 0.878; the intrinsic clearance, human liver microsomes was 11.4 mL/min/kg; the intrinsic clearance, rat liver microsomes was found to be 75.2 mL/min/kg.
Take `COC(=O)c1ccc(NC(=O)N(C)Cc2ccccc2CN2CCCC2)cc1`: the MDR1-MDCK efflux ratio stood at 7.85; the intrinsic clearance, human liver microsomes was 18.2 mL/min/kg; the intrinsic clearance, rat liver microsomes came to 277 mL/min/kg; the aqueous solubility turned out to be 40.8 µg/mL (≈ 107 µM).
Turning to `N#Cc1ccccc1NC(=O)CCc1ccccc1`, the MDR1-MDCK efflux ratio was 0.552; the intrinsic clearance, human liver microsomes was determined as 16 mL/min/kg; the intrinsic clearance, rat liver microsomes is 456 mL/min/kg.
For the compound `N#Cc1ccc(-c2csc(CCN3CCCC3=O)n2)cc1`, the MDR1-MDCK efflux ratio amounted to 0.985; the intrinsic clearance, human liver microsomes was determined as 5.81 mL/min/kg; the intrinsic clearance, rat liver microsomes worked out at 67.4 mL/min/kg; the aqueous solubility turned out to be 25.1 µg/mL (≈ 84.3 µM).
The compound `Cc1cnn(Cc2cc(F)ccc2F)c1N` showed an intrinsic clearance, human liver microsomes of 6.7 mL/min/kg; an intrinsic clearance, rat liver microsomes of at most 10.7 mL/min/kg; an aqueous solubility of 41.2 µg/mL (≈ 185 µM).
For `c1ccc2nc(N3CCC(c4nc5ccccc5[nH]4)CC3)cnc2c1`, the aqueous solubility was 2.4 µg/mL (≈ 7.29 µM).
Turning to `Cc1cnc(NCc2ccccc2-n2ccnc2)nc1N(C)C`, the MDR1-MDCK efflux ratio was determined as 11.3; the intrinsic clearance, human liver microsomes stood at 33.7 mL/min/kg; the intrinsic clearance, rat liver microsomes is 486 mL/min/kg; the aqueous solubility was determined as 52.2 µg/mL (≈ 169 µM).
On to `O=C(Nc1ccc2c(c1)N(CC(F)F)C(=O)CS2)C1CC=CC1`, for which the MDR1-MDCK efflux ratio was determined as 0.742; the intrinsic clearance, human liver microsomes amounted to 52.6 mL/min/kg; the intrinsic clearance, rat liver microsomes was 391 mL/min/kg.
`CN(C)[C@@H]1CN(C(=O)CCn2cnc3ccccc32)C[C@H]1O`: the MDR1-MDCK efflux ratio came to 1.66; the intrinsic clearance, human liver microsomes is 5.49 mL/min/kg; the intrinsic clearance, rat liver microsomes is 30.7 mL/min/kg; the aqueous solubility was found to be 151 µg/mL (≈ 500 µM).
As for `CCC(=O)N1CCN(c2ccc(Cl)cc2NC(=O)COc2ccccc2)CC1`, the MDR1-MDCK efflux ratio was 0.871; the fraction unbound, human plasma worked out at 0.0178; the intrinsic clearance, human liver microsomes came out at 88.4 mL/min/kg; the intrinsic clearance, rat liver microsomes turned out to be 1840 mL/min/kg.
For `Cc1cc(NCC2(c3ccncc3)CC2)ncn1`, the MDR1-MDCK efflux ratio was determined as 2.49; the intrinsic clearance, human liver microsomes was at most 4.74 mL/min/kg; the intrinsic clearance, rat liver microsomes is 198 mL/min/kg.
Regarding `C=CC(=O)N(C)CCOc1c(N)ncnc1-c1cc(F)cc(NC(=O)c2ccc(C3CC3)cc2F)c1C`, the MDR1-MDCK efflux ratio was found to be 86.8; the fraction unbound, human plasma turned out to be 0.0689; the intrinsic clearance, human liver microsomes turned out to be 79 mL/min/kg; the intrinsic clearance, rat liver microsomes was 2040 mL/min/kg. The aqueous solubility was found to be 58.9 µg/mL (≈ 116 µM).
In the case of `Cc1c(C(=O)Nc2ccc(N3C[C@@H](C)O[C@H](C)C3)nc2)cccc1-c1ccc(OC(F)(F)F)cc1`, the MDR1-MDCK efflux ratio came out at 1.16; the intrinsic clearance, human liver microsomes was found to be 24 mL/min/kg; the intrinsic clearance, rat liver microsomes amounted to 74.9 mL/min/kg.
Turning to `CCNc1ccnc(-c2cccc(C(=O)NCCCc3cnn(C)c3)c2)n1`, the MDR1-MDCK efflux ratio stood at 39.2; the intrinsic clearance, human liver microsomes was determined as 26.1 mL/min/kg; the intrinsic clearance, rat liver microsomes came out at 634 mL/min/kg.
On to `COc1ccc(-c2nc(CN3CCC[C@H](O)C3)no2)cc1`, for which the MDR1-MDCK efflux ratio worked out at 0.841; the intrinsic clearance, human liver microsomes stood at 11.5 mL/min/kg; the intrinsic clearance, rat liver microsomes worked out at 48 mL/min/kg; the aqueous solubility was found to be 36.8 µg/mL (≈ 127 µM).
Take `COCc1ccccc1COC(=O)c1ccc(C)nc1`: the MDR1-MDCK efflux ratio worked out at 0.608; the intrinsic clearance, human liver microsomes worked out at 444 mL/min/kg; the intrinsic clearance, rat liver microsomes was 2220 mL/min/kg.
As for `Cc1cncc(C2CCN(Cc3cnccn3)CC2)n1`, the MDR1-MDCK efflux ratio was 0.65; the intrinsic clearance, human liver microsomes is at most 4.74 mL/min/kg; the intrinsic clearance, rat liver microsomes was found to be 60.6 mL/min/kg; the aqueous solubility was determined as 67.8 µg/mL (≈ 252 µM).
Compound `Nc1nc(NCCNc2ncc(-c3ncc[nH]3)c(-c3ccc(Cl)cc3Cl)n2)ccc1[N+](=O)[O-]` showed an aqueous solubility of 29.9 µg/mL (≈ 61.6 µM).
Regarding `CN1C(=O)N(CC(=O)Nc2ccccc2-c2ccccc2)C(=O)C1(C)C`, the MDR1-MDCK efflux ratio worked out at 12.9; the intrinsic clearance, human liver microsomes came out at 21.4 mL/min/kg; the intrinsic clearance, rat liver microsomes amounted to 280 mL/min/kg; the aqueous solubility came out at 18.7 µg/mL (≈ 53.2 µM).
As for `O=C1CCCN1c1ccc(S(=O)(=O)Nc2cccc(-c3nnc4n3CCC4)c2)cc1`, the MDR1-MDCK efflux ratio worked out at 9.93.
Turning to `Cc1cnc(CNC2(c3nccs3)CCCC2)cn1`, the intrinsic clearance, human liver microsomes was at most 4.74 mL/min/kg and the intrinsic clearance, rat liver microsomes was 245 mL/min/kg.
Consider `COCC1(CNS(=O)(=O)c2ccccc2)CCC1`, for which the MDR1-MDCK efflux ratio is 0.696; the intrinsic clearance, human liver microsomes turned out to be 30.7 mL/min/kg; the intrinsic clearance, rat liver microsomes amounted to 996 mL/min/kg.
On to `O=C(CN1CCCN(c2ccc(C(F)(F)F)cn2)CC1)Nc1ccccc1F`, for which the MDR1-MDCK efflux ratio turned out to be 0.671; the intrinsic clearance, human liver microsomes stood at 148 mL/min/kg; the intrinsic clearance, rat liver microsomes came to 1100 mL/min/kg; the aqueous solubility turned out to be 19.4 µg/mL (≈ 49.1 µM).
Take `Cc1c(C(=O)Nc2ccc(N3CCC(N4CCOCC4)CC3)c(C#N)c2)cnn1-c1ccc(Cl)cc1`: the MDR1-MDCK efflux ratio was found to be 11.5; the intrinsic clearance, human liver microsomes stood at 80.7 mL/min/kg; the intrinsic clearance, rat liver microsomes amounted to 294 mL/min/kg.
On to `COc1ccccc1-c1nnc([C@H]2CCN(Cc3ccccc3C)C2)o1`, for which the MDR1-MDCK efflux ratio was 0.755; the intrinsic clearance, human liver microsomes is 158 mL/min/kg; the intrinsic clearance, rat liver microsomes worked out at 3190 mL/min/kg; the aqueous solubility worked out at 37 µg/mL (≈ 106 µM).
For the compound `O=C(CSCCCn1c(=O)[nH]c2ccccc21)N1CCCCC1`, the intrinsic clearance, human liver microsomes worked out at 68.3 mL/min/kg; the intrinsic clearance, rat liver microsomes was 760 mL/min/kg; the aqueous solubility is 59.6 µg/mL (≈ 179 µM).
The like results for `O=C(COc1ccc2oc3c(c2c1)CCCC3)N1CCOCC1` were, in that order, 31 mL/min/kg, 2980 mL/min/kg and 43 µg/mL (≈ 136 µM).
For the compound `Cc1nnc(NCCc2ccc3c(c2)OCO3)c(C#N)c1C`, the MDR1-MDCK efflux ratio was 0.636; the intrinsic clearance, human liver microsomes was 52.1 mL/min/kg; the intrinsic clearance, rat liver microsomes was determined as 935 mL/min/kg; the aqueous solubility amounted to 22.4 µg/mL (≈ 75.6 µM).
`Cn1ccc(NC(=O)c2cc(-c3ccncc3)nc3ccccc23)n1` showed an intrinsic clearance, human liver microsomes of 21.4 mL/min/kg; an intrinsic clearance, rat liver microsomes of 65.7 mL/min/kg; an aqueous solubility of 31.5 µg/mL (≈ 95.6 µM).
Compound `Fc1cccc2c1CN(Cc1c[nH]nc1-c1cccnc1)CC2` yielded an intrinsic clearance, human liver microsomes of 92.9 mL/min/kg and an intrinsic clearance, rat liver microsomes of 1240 mL/min/kg.
`N#Cc1c(Cl)nc(N)n1-c1ccccc1` returned an intrinsic clearance, human liver microsomes of 11.7 mL/min/kg and an intrinsic clearance, rat liver microsomes of 27.7 mL/min/kg.
For the compound `COc1cc(C(C)C)c2c(c1)S(=O)(=O)N(COc1cc(=O)n3cccc(OCCN4CCCCC4)c3n1)C2=O`, the MDR1-MDCK efflux ratio is 91.5; the intrinsic clearance, human liver microsomes amounted to 162 mL/min/kg; the intrinsic clearance, rat liver microsomes is 250 mL/min/kg; the aqueous solubility was 53.4 µg/mL (≈ 95.9 µM).
On the same counts, the results for `CCOC(=O)c1c(C)[nH]c(CN(Cc2ccccc2)C(=O)c2ccccc2Cl)c1C` are 2.14, 311 mL/min/kg, 1490 mL/min/kg and 5.15 µg/mL (≈ 12.1 µM).
On the same counts, the results for `CNC(=O)c1cnc(/C=C/c2csc(-c3cccs3)n2)s1` are 0.521, 34.4 mL/min/kg, 217 mL/min/kg and 8.88 µg/mL (≈ 26.6 µM).
The like results for `CN1CCC(n2ncc3[nH]c(-c4ccc5ccccc5c4)nc32)CC1` were, in that order, 13.9, 23.4 mL/min/kg, 928 mL/min/kg and 42.1 µg/mL (≈ 127 µM).
`c1ccc2c(c1)nnn2Cc1ccc2c(c1)OCO2`: the MDR1-MDCK efflux ratio is 0.581 and the aqueous solubility is 0.96 µg/mL (≈ 3.79 µM).
In turn, `Cc1nc(C)c(C(=O)NCc2ncoc2C)s1` came in with an intrinsic clearance, human liver microsomes of at most 4.74 mL/min/kg and an intrinsic clearance, rat liver microsomes of at most 10.7 mL/min/kg.
Compound `C#CCNC(=O)c1ccc(OC)c(OC)c1` showed an aqueous solubility of 26.9 µg/mL (≈ 123 µM).
As to `Cc1cnn(Cc2nc(Cn3cccn3)no2)c1`, the MDR1-MDCK efflux ratio amounted to 0.771; the intrinsic clearance, human liver microsomes is at most 4.74 mL/min/kg; the intrinsic clearance, rat liver microsomes was at most 10.7 mL/min/kg; the aqueous solubility came to 36 µg/mL (≈ 147 µM).
In turn, `COCc1ncc(CN2CCC(Oc3ccccc3C)CC2)cn1` yielded an intrinsic clearance, human liver microsomes of 23.1 mL/min/kg and an intrinsic clearance, rat liver microsomes of 180 mL/min/kg.
In turn, `O=C(N[C@H](CO)CC1CCCCC1)c1cccc(-c2cnccn2)c1` came in with an intrinsic clearance, human liver microsomes of 198 mL/min/kg and an intrinsic clearance, rat liver microsomes of 4260 mL/min/kg.
`CC(C)(C)CC(=O)N1CCC(OCCCN)CC1`: the MDR1-MDCK efflux ratio came to 8.05; the intrinsic clearance, human liver microsomes is at most 4.74 mL/min/kg; the intrinsic clearance, rat liver microsomes was at most 10.7 mL/min/kg; the aqueous solubility is 50.6 µg/mL (≈ 198 µM).
The like results for `CN(CC1CCCC1)C(=O)Nc1ccccc1N1CCOC1=O` were, in that order, 5.03, 44.9 mL/min/kg, 541 mL/min/kg and 50.6 µg/mL (≈ 159 µM).
As for `O=C(NC1CCCCC1)N1CCc2nc3ccccn3c(=O)c2C1`, the intrinsic clearance, human liver microsomes was at most 4.74 mL/min/kg; the intrinsic clearance, rat liver microsomes came to 123 mL/min/kg; the aqueous solubility is 50 µg/mL (≈ 153 µM).
Regarding `CC(C)CCN1CCC(CNS(C)(=O)=O)CC1`, the MDR1-MDCK efflux ratio stood at 2.43; the intrinsic clearance, human liver microsomes is at most 4.74 mL/min/kg; the intrinsic clearance, rat liver microsomes is at most 10.7 mL/min/kg.

Broadly, the aqueous solubility is the dissolved amount per volume that the medium holds. Low readings indicate a poorly soluble substance, high ones a readily soluble substance.
